Measurements reported in US20240316074A1 (priority 2021, published 2024).
≈ marks a conversion by molar mass, not a printed value.

Key:
Assay type in all cases: cell-based
[1] = tested on: SARS-CoV-2 spike pseudotyped lentivirus; assay: organism not typed; details: HEK-293T, read-out: IC50, concentration which reduced pseudovirus infections by half
[2] = tested on: SARS-CoV-2 variant B.1.1.7; assay: microbe, parasite or virus in culture; details: Severe acute respiratory syndrome coronavirus 2, Vero C1008
[3] = tested on: SARS-CoV-2 variant B.1.351; assay: microbe, parasite or virus in culture; details: Severe acute respiratory syndrome coronavirus 2, Vero C1008

SMILES	IC50 [1]	IC50 [2]	IC50 [3]
CCCCCc1cc(O)c(C/C=C(\C)CCC=C(C)C)c(O)c1C(=O)O [CBGA, Cannabigerolic acid]	8.4 µg/mL (≈ 23.3 µM)	26 µg/mL (≈ 72.1 µM)	37 µg/mL (≈ 103 µM)
C=C(C)[C@@H]1CCC(C)=C[C@H]1c1c(O)cc(CCCCC)c(C(=O)O)c1O [CBDA, Cannabidiolic acid]	7.7 µg/mL (≈ 21.5 µM)	11 µg/mL (≈ 30.7 µM)	19 µg/mL (≈ 53 µM)
